US10464952B2, “Beta-lactamase inhibitors” (priority 2015, dated 2019)

Experiments:
OXA-48 = target: T1, OXA-48 (Klebsiella pneumoniae, UniProt Q6XEC0); test: β-lactamase enzyme inhibition assay, OXA-48 (nitrocefin substrate); format: biochemical
T1 construct: made in house; host or cells: E. coli BL21(DE3)
Method: (§1) For SHV-5, KPC-2, p99AmpC and OXA-4813-lactamases, E. coli BL21(DE3) bacterial cells carrying expression plasmids (expressed as native untagged proteins) for the individual β-lactamases were grown in 1L of Superbroth (Teknova Inc. Hollister, Calif.) supplemented with 100 μg/ml kanamycin selection and 1×5052 (0.5% glycerol, 0.05% glucose and 0.2% α-lactose) at 35° C. for 18-20 hours. Cells were harvested by centrifugation (4,000 ×g, 4° C., 20 min), re-suspended in 50 ml of 10 mM HEPES pH 7.5 (1/20 of the initial volume). The cells were lysed by sonication (5 pulses of 45 seconds) at 45 Won ice. The lysates were clarified by centrifugation at 10,000 ×g for 40 minutes at 4° C. Samples were diluted 5-fold in 50 mM sodium acetate pH 5.0, stored overnight at 4° C., after which they were centrifuged at 10,000 ×g for 30 minutes to clarify, and filtered through 0.45 μm filters. The samples were loaded onto a 5 ml Capto S sepharose cation exchange column (GE Healthcare) pre-equilibrated with 50 mM sodium acetate pH 5.0. The column was washed with 5 column volumes of 50 mM sodium acetate pH 5.0 to wash out unbound protein and a linear gradient of NaCl (0 to 500 mM) was used to elute the protein (over 16 CV) from the column. Fractions were assayed for β-lactamase activity using Centa (Calbiochem, Gibbstown, N.J.) or Nitrocefin (EMD Millipore chemicals, Darmstadt, Germany) as a reporter β-lactamase substrate for activity in the isolated fractions. Active fractions were pooled, concentrated and further purified by gel filtration chromatography on a Superdex 75 prep grade gel filtration column (GE Healthcare, Piscataway, N.J.) pre -equilibrated in 50 mM Hepes pH 7.5, 150 mM NaCl. Active fractions were pooled, concentrated, and quantitated by BCA protein determination (ThermoScientific, Rockford, Ill.), dialyzed into PBS and frozen at […] in 20% glycerol until use.
(§2) An equal volume of diluted enzyme stock was added, and the plates were incubated at 37° C. for 15 min. Nitrocefin was used as substrate for p99 AmpC, VIM-2 and OXA-48 and dispensed into each well at a final concentration of 100 μM. Absorbance at 486 nm was immediately monitored for 10 min using a Biotek Powerwave XS2 microplate spectrophotometer using the GEN5 software package (Biotek Instruments, Winooski Vt.). In an analogous fashion, imipenem was used as substrate for KPC-2 and Cefotaxime was used for SHV-5, while changes in absorbance upon hydrolysis of the β-lactam ring were monitored at 300 nm and 260 nm respectively in UV-transparent 96-well microtiter assay plates. Maximum rates of hydrolysis were compared to those in control wells (without inhibitors), and percentages of enzyme inhibition were calculated for each concentration of inhibitor. The concentration of inhibitor needed to reduce the initial rate of hydrolysis of substrate by 50% (IC50) was calculated as the residual activity of β-lactamase at 486 nm using GraFit version 7 kinetics software package (Erithacus Software, Surrey, UK).
(§3) Using the methodology described above, examples of the current invention were evaluated for their ability to inhibit β-lactamase enzymes from all four Ambler classifications (A through D). […] NT=Not tested.

[1] = target: T2, VIM-2 metallo β-lactamase (Pseudomonas aeruginosa, UniProt Q9K2N0); test: β-lactamase enzyme inhibition assay, VIM-2 (nitrocefin substrate); format: biochemical; conditions: 15 min preincubation at 37° C.; nitrocefin 100 μM, 486 nm; read-out: IC50 VIM-2 (Class B)
T2 construct: made in house; host or cells: E. coli BL21(DE3)
Method: For VIM-2 metallo β-lactamase, the procedure was identical with the following exceptions, first the protein was not pH adjusted to pH 5 with 50 mM sodium acetate. Second, the chromatography step was changed to a 5 ml Q sepharose anion exchange column pre-equilibrated with 50 mM Hepes pH 7.5, and elution of the protein was achieved by a linear gradient of NaCl (0-600 mM). Finally, the VIM-2 purification required a second run (3rd step) on the Q sepharose anion exchange column to achieve acceptable purity (>90%).
as §2, §3

SHV-5 = target: T3, SHV-5 (Klebsiella pneumoniae, UniProt P0A3M1); test: β-lactamase enzyme inhibition assay, SHV-5 (cefotaxime substrate); format: biochemical
T3 construct: made in house; host or cells: E. coli BL21(DE3)
T3 sequence (P0A3M1 22-286): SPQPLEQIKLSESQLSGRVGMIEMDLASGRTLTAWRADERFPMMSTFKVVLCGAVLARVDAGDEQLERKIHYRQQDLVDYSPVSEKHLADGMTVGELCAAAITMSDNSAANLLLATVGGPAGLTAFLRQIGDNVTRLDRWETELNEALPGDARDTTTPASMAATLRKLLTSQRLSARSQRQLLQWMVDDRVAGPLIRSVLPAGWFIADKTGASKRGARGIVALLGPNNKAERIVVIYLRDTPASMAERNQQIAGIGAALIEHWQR
Method: as §1, §2, §3

KPC-2 = target: T4, KPC-2 (Klebsiella pneumoniae, UniProt Q9F663); test: β-lactamase enzyme inhibition assay, KPC-2 (imipenem substrate); format: biochemical
T4 construct: made in house; host or cells: E. coli BL21(DE3)
T4 sequence (Q9F663 25-293 limits assumed): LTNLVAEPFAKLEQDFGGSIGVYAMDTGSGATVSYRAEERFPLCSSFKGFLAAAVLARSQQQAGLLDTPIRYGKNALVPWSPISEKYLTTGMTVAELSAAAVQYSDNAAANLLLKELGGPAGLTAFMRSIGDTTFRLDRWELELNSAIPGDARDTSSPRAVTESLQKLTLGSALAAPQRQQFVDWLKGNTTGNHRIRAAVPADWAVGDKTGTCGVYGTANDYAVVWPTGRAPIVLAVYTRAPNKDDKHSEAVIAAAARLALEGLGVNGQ
Method: as §1, §2, §3

[2] = test system: K. pneumoniae producing the Class D carbapenemase OXA-48; test: Broth microdilution MIC assay, potentiation of meropenem; format: cell-based; conditions: Fixed Mero 4 μg/mL; CAMHB, 16-20 hours at 37° C.
Source text: (§4) To determine the ability of test compounds to potentiate the inhibition of the growth of bacterial strains that produce beta-lactamase enzymes, classic cell based broth microdilution MIC assays were employed. Six bacteria strains producing beta-lactamase enzymes were used: E. coli expressing the Class A Extended Spectrum Beta-Lactamase (ESBL) CTX-M-15, E. cloacae expressing the Class C P99, K. pneumoniae expressing the Class A carbapenemase KPC-3, P.aeruginosa expressing the Class B carbapenemase VIM-2, K. pneumoniae expressing the class A carbapenemase KPC-2 and the class B carbapenemase VIM-4, and K. pneumoniae producing the Class D carbapenemase OXA-48. The assay was conducted in Cation Adjusted Mueller Hinton Broth (CAMHB, BD #212322, BD Diagnostic Systems, Sparks, Md.). Bacteria strains were grown for 3-5 hours in CAMHB broth. Test compounds were added to a microtiter plate in 2-fold serial dilutions in CAMHB in a final concentration range of 32 μg/mL to 0.015 μg/mL. An overlay of CAMHB containing a Beta-lactam was added to the compounds at a final static concentration of 4 μg/mL. […] In addition to the titration of test compounds the MICs of a panel of control beta-lactams is also tested to ensure the strains are behaving consistently from test to test. Once the test compound and antibiotics are added the plates can be inoculated according to CLSI broth microdilution method. After inoculation, the plates are incubated for 16-20 hours at 37° C., then the Minimal Inhibitory Concentration (MIC) of the test compound is determined visually.
(§5) Using the methodology described above, examples of the current invention were evaluated for their ability to inhibit the growth of β-lactamase-producing bacteria in the presence of a β-lactam antibiotic.

[3] = test system: K. pneumoniae expressing the Class A carbapenemase KPC-3; test: as above; format: cell-based; conditions: Fixed Mero 4 μg/mL; CAMHB, 16-20 hours at 37° C.
Source text: as §4, §5

[4] = test system: P.aeruginosa expressing the Class B carbapenemase VIM-2; test: as above; format: cell-based; conditions: for MIC (μg/mL) of exemplary compounds in presence of fixed β-lactams, P. aerug. 2775 VIM-2: Fixed Mero 4 μg/mL, CAMHB, 16-20 hours at 37° C.
Source text: as §4, §5
(§6) Representative results are shown in Table 3 where A represents an MIC of the fixed β-lactam antibiotic in the presence of >32 μg/mL of a β-lactamase inhibitor of exemplary compounds, B represents the MIC in the presence of between 8 and 32 μg/mL of a β-lactamase inhibitor of exemplary compounds, and C represents the MIC in the presence of ≤4 μg/mL of a β-lactamase inhibitor of exemplary compounds. NT=Not Tested.

[5] = test system: K. pneumoniae expressing the class A carbapenemase KPC-2 and the class B carbapenemase VIM-4; test: as above; format: cell-based; conditions: for MIC (μg/mL) of exemplary compounds in presence of fixed β-lactams, K.P. A-1797 KPC-2 VIM-4: Fixed Mero 4 μg/mL, CAMHB, 16-20 hours at 37° C.
Source text: as §4, §5, §6

[6] = test system: E. coli expressing the Class A Extended Spectrum Beta-Lactamase (ESBL) CTX-M-15; test: Broth microdilution MIC assay, potentiation of ceftazidime; format: cell-based; conditions: for MIC (μg/mL) of exemplary compounds in presence of fixed β-lactams, E. coli ESBL4 CTX-M-15: Fixed CAZ 4 μg/mL, CAMHB, 16-20 hours at 37° C.
Source text: as §4, §5, §6

[7] = test system: E. cloacae expressing the Class C P99; test: as above; format: cell-based; conditions: for MIC (μg/mL) of exemplary compounds in presence of fixed β-lactams, E. cl. 144200 p99 AmpC: Fixed CAZ 4 μg/mL, CAMHB, 16-20 hours at 37° C.
Source text: as §4, §5, §6

p99 AmpC = target: T5, p99 AmpC (Enterobacter cloacae, UniProt P05364); test: β-lactamase enzyme inhibition assay, p99 AmpC (nitrocefin substrate); format: biochemical
T5 construct: made in house; host or cells: E. coli BL21(DE3)
T5 sequence (P05364 21-381): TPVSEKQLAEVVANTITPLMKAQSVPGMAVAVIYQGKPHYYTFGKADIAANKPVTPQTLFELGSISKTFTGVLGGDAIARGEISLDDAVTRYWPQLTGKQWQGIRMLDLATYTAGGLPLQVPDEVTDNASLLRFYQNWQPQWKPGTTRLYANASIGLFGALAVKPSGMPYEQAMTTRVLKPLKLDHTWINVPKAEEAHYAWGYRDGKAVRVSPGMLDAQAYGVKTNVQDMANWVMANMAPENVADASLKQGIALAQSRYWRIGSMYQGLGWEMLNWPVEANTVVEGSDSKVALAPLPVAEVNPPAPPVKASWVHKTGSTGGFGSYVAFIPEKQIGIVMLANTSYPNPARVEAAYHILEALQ
Method: as §1, §2, §3

T1 sequence (Q6XEC0 23-265 limits assumed): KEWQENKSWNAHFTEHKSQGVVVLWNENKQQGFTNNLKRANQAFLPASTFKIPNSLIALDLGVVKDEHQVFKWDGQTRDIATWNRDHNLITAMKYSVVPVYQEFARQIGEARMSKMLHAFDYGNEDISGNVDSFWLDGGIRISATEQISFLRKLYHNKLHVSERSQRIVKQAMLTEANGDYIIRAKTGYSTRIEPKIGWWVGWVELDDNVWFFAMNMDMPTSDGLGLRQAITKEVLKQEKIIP

SMILES	IC50 (OXA-48) [nM]	IC50 [1] [µM]	IC50 (SHV-5) [nM]	IC50 (KPC-2) [nM]	MIC (μg/mL) of exemplary compounds in presence of fixed β-lactams, K. P. 11978 OXA-48 [2]	MIC (μg/mL) of exemplary compounds in presence of fixed β-lactams, K. P. 156319 KPC-3 [3]	MIC (μg/mL) of exemplary compounds in presence of fixed β-lactams, P. aerug. 2775 VIM-2 [4]	MIC (μg/mL) of exemplary compounds in presence of fixed β-lactams, K.P. A-1797 KPC-2 VIM-4 [5]	MIC (μg/mL) of exemplary compounds in presence of fixed β-lactams, E. coli ESBL4 CTX-M-15 [6]	MIC (μg/mL) of exemplary compounds in presence of fixed β-lactams, E. cl. 144200 p99 AmpC [7]	IC50 (p99 AmpC) [nM]	MIC alone of partner antibiotic ([6]; antibiotic alone, E. coli expressing Ambler Class A ESBL CTX-M-15) [µg/mL]	MIC alone of partner antibiotic ([7]; antibiotic alone, E. cloacae expressing Class C P99) [µg/mL]	MIC alone of partner antibiotic ([4]; antibiotic alone, P. aeruginosa expressing VIM-2) [µg/mL]	MIC alone of partner antibiotic ([5]; antibiotic alone, K. pneumoniae expressing KPC-2 and VIM-4) [µg/mL]
CC(F)C(=O)N[C@H]1Cc2cccc(C(=O)O)c2OB1O (mixture of isomers) [Example 102, (3R)-3-(2-fluoropropanamido)-2-hydroxy-3,4-dihydro-2H -benzo[e][1,2]oxaborinine-8-carboxylic acid]	100 to 1000	1 to 10	< 100	< 100	C (C represents the MIC in the presence of ≤4 μg/mL of a β-lactamase inhibitor)	C (C represents the MIC in the presence of ≤4 μg/mL of a β-lactamase inhibitor)	C (C represents the MIC in the presence of ≤4 μg/mL of a β-lactamase inhibitor)	B (B represents the MIC in the presence of between 8 and 32 μg/mL of a β-lactamase inhibitor)	C (C represents the MIC in the presence of ≤4 μg/mL of a β-lactamase inhibitor)	C (C represents the MIC in the presence of ≤4 μg/mL of a β-lactamase inhibitor)	< 100	–	–	–	–
CC(C)(O/N=C(\C(=O)N[C@@H]1C(=O)N2C(C(=O)[O-])=C(C[n+]3ccccc3)CS[C@H]12)c1csc(N)n1)C(=O)O [Ceftazidime, reference compound]	–	–	–	–	–	–	–	–	–	–	–	> 128	128	–	–
CCC(F)(F)C(=O)N[C@H]1Cc2cccc(C(=O)O)c2OB1O [Example 1, (R)-3-(2,2-difluorobutanamido)-2-hydroxy-3,4-dihydro-2H-benzo [e] [1,2] oxaborinine-8-carboxylic acid]	100 to 1000	1 to 10	< 100	100 to 1000	C (C represents the MIC in the presence of ≤4 μg/mL of a β-lactamase inhibitor)	B (B represents the MIC in the presence of between 8 and 32 μg/mL of a β-lactamase inhibitor)	C (C represents the MIC in the presence of ≤4 μg/mL of a β-lactamase inhibitor)	B (B represents the MIC in the presence of between 8 and 32 μg/mL of a β-lactamase inhibitor)	C (C represents the MIC in the presence of ≤4 μg/mL of a β-lactamase inhibitor)	C (C represents the MIC in the presence of ≤4 μg/mL of a β-lactamase inhibitor)	< 100	–	–	–	–
O=C(CCCC(F)(F)F)N[C@H]1Cc2cccc(C(=O)O)c2OB1O [Example 2, (R)-2-hydroxy-3-(5,5,5-trifluoropentanamido)-3,4-dihydro-2H-benzo[e][1,2]oxaborinine-8-carboxylic acid]	100 to 1000	1 to 10	< 100	< 100	C (C represents the MIC in the presence of ≤4 μg/mL of a β-lactamase inhibitor)	C (C represents the MIC in the presence of ≤4 μg/mL of a β-lactamase inhibitor)	B (B represents the MIC in the presence of between 8 and 32 μg/mL of a β-lactamase inhibitor)	C (C represents the MIC in the presence of ≤4 μg/mL of a β-lactamase inhibitor)	C (C represents the MIC in the presence of ≤4 μg/mL of a β-lactamase inhibitor)	C (C represents the MIC in the presence of ≤4 μg/mL of a β-lactamase inhibitor)	< 100	–	–	–	–
CC(F)(F)CC(=O)N[C@H]1Cc2cccc(C(=O)O)c2OB1O [Example 3, (R)-3-(3,3-difluorobutanamido)-2-hydroxy-3,4-dihydro-2H-benzo [e][1,2]oxaborinine-8-carboxylic acid]	100 to 1000	1 to 10	< 100	100 to 1000	C (C represents the MIC in the presence of ≤4 μg/mL of a β-lactamase inhibitor)	C (C represents the MIC in the presence of ≤4 μg/mL of a β-lactamase inhibitor)	C (C represents the MIC in the presence of ≤4 μg/mL of a β-lactamase inhibitor)	C (C represents the MIC in the presence of ≤4 μg/mL of a β-lactamase inhibitor)	C (C represents the MIC in the presence of ≤4 μg/mL of a β-lactamase inhibitor)	C (C represents the MIC in the presence of ≤4 μg/mL of a β-lactamase inhibitor)	< 100	–	–	–	–
C[C@@H](O)[C@H]1C(=O)N2C(C(=O)O)=C(S[C@@H]3CN[C@H](C(=O)N(C)C)C3)[C@H](C)[C@H]12 [Meropenem, reference compound]	–	–	–	–	–	–	–	–	–	–	–	–	–	16	64
